Experimental data: patent publication US6525001B1, “Substituted pyrimidine and pyridine herbicides” (Mid-American Commercialization Corporation, priority 1997, dated 2003)

Tests used:
Format in all cases: in vivo
Design in all cases: key: 0 is no effect; 10 is complete control
[1] = system: bedstraw (Galium aparine); assay: Test B pre-/postemergence
In short: (§1)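 Compounds in a surfactant-containing, non-phytotoxic solvent blend are applied to freshly planted seed (preemergence) and, concurrently, to seedlings of 2 to 18 cm at 1–4 leaves (postemergence). Plants stay in the greenhouse twelve to sixteen days and are then scored visually from 0 (no effect) to 10 (complete control).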

[2] = system: blackgrass (Alopecurus myosuroides); assay: Test B pre-/postemergence
In short: as §1

[3] = system: broadleaf signalgrass (Brachiaria decumbens); assay: Test B pre-/postemergence
In short: as §1

[4] = system: cocklebur (Xanthium strumarium); assay: Test B pre-/postemergence
In short: as §1

[5] = system: corn (Zea mays); assay: Test B pre-/postemergence
In short: as §1

[6] = system: crabgrass (Digitaria sanguinalis); assay: Test B pre-/postemergence
In short: as §1

[7] = system: giant foxtail (Setaria faberii); assay: Test B pre-/postemergence
In short: as §1

[8] = system: momingglory (Ipomoea hederacea); assay: Test B pre-/postemergence
In short: as §1

[9] = system: pigweed (Amaranthus retroflexus); assay: Test B pre-/postemergence
In short: as §1

[10] = system: purple nutsedge (Cyperus rotundus); assay: Test B pre-/postemergence
In short: as §1

[11] = system: rape (Brassica napus); assay: Test B pre-/postemergence
In short: as §1

[12] = system: soybean (Glycine max); assay: Test B pre-/postemergence
In short: as §1

[13] = system: sugar beet (Beta vulgaris); assay: Test B pre-/postemergence
In short: as §1

[14] = system: velvetleaf (Abutilon theophrasti); assay: Test B pre-/postemergence
In short: as §1

[15] = system: wheat (Triticum aestivum); assay: Test B pre-/postemergence
In short: as §1

[16] = system: wild oat (Avena fatua); assay: Test B pre-/postemergence
In short: as §1

[17] = system: bamyardgrass (Echinochloa crus-galli); assay: Test B flood test
In short: (§2)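 Read-out is a visual response score from 0 (no effect) to 10 (complete control), assigned by comparison with untreated controls. Treatment was applied at the 2-leaf stage, and plants stayed in the greenhouse for twelve to sixteen days before scoring.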

[18] = system: duck salad (Heteranthera limosa); assay: Test B flood test
In short: as §2

[19] = system: rice (Oryza sativa); assay: Test B flood test
In short: as §2

[20] = system: smallflower flatsedge (Cyperus difformis); assay: Test B flood test
In short: as §2

[21] = Preemergence, Rate 62 g/ha, scale of 0 to 10
[22] = Rate 62 g/ha, Postemergence (flood test)
[23] = Rate 125 g/ha, Postemergence section (flood test species)
[24] = Rate 250 g/ha, Postemergence (flood test species)

COc1cnc(-n2ccc(C(F)(F)F)n2)nc1C(=O)c1cccc(C(F)(F)F)c1 [Compound 60]
Plant response rating, Bedstraw [1, 21]: 0
Bedstraw plant response rating ([1]; Rate 62 g/ha, Postemergence): 2
Bedstraw plant response rating ([1]; Rate 125 g/ha, Postemergence): 3
Plant response rating, Bedstraw ([1]; Rate 125 g/ha, Preemergence): 0
Plant response rating, Bedstraw ([1]; Rate 250 g/ha, Postemergence): 3
Plant response rating, Bedstraw ([1]; Rate 250 g/ha, Preemergence): 1
Plant response rating, Blackgrass [2, 21]: 1
Blackgrass plant response rating ([2]; Rate 62 g/ha, Postemergence): 1
Blackgrass plant response rating ([2]; Rate 125 g/ha, Postemergence): 1
Plant response rating, Blackgrass ([2]; Rate 125 g/ha, Preemergence): 1
Plant response rating, Blackgrass ([2]; Rate 250 g/ha, Postemergence): 2
Plant response rating, Blackgrass ([2]; Rate 250 g/ha, Preemergence): 2
B. signalgrass plant response rating ([3]; Rate 62 g/ha, Postemergence): 2
B. signalgrass plant response rating ([3]; Rate 62 g/ha, Preemergence): 2
B. signalgrass plant response rating ([3]; Rate 125 g/ha, Postemergence): 2
Plant response rating, B. signalgrass ([3]; Rate 125 g/ha, Preemergence): 3
Plant response rating, B. signalgrass ([3]; Rate 250 g/ha, Postemergence): 3
Plant response rating, B. signalgrass ([3]; Rate 250 g/ha, Preemergence): 3
Plant response rating, Cocklebur [4, 21]: 0
Cocklebur plant response rating ([4]; Rate 62 g/ha, Postemergence): 3
Cocklebur plant response rating ([4]; Rate 125 g/ha, Postemergence): 3
Plant response rating, Cocklebur ([4]; Rate 125 g/ha, Preemergence): 0
Plant response rating, Cocklebur ([4]; Rate 250 g/ha, Postemergence): 4
Plant response rating, Cocklebur ([4]; Rate 250 g/ha, Preemergence): 0
Plant response rating, Corn [5, 21]: 0
Corn plant response rating ([5]; Rate 62 g/ha, Postemergence): 2
Corn plant response rating ([5]; Rate 125 g/ha, Postemergence): 2
Plant response rating, Corn ([5]; Rate 125 g/ha, Preemergence): 0
Plant response rating, Corn ([5]; Rate 250 g/ha, Postemergence): 3
Plant response rating, Corn ([5]; Rate 250 g/ha, Preemergence): 0
Plant response rating, Crabgrass [6, 21]: 0
Crabgrass plant response rating ([6]; Rate 62 g/ha, Postemergence): 2
Crabgrass plant response rating ([6]; Rate 125 g/ha, Postemergence): 3
Plant response rating, Crabgrass ([6]; Rate 125 g/ha, Preemergence): 2
Plant response rating, Crabgrass ([6]; Rate 250 g/ha, Postemergence): 4
Plant response rating, Crabgrass ([6]; Rate 250 g/ha, Preemergence): 6
Plant response rating, Giant foxtail [7, 21]: 2
Giant foxtail plant response rating ([7]; Rate 62 g/ha, Postemergence): 2
Giant foxtail plant response rating ([7]; Rate 125 g/ha, Postemergence): 2
Plant response rating, Giant foxtail ([7]; Rate 125 g/ha, Preemergence): 2
Plant response rating, Giant foxtail ([7]; Rate 250 g/ha, Postemergence): 2
Plant response rating, Giant foxtail ([7]; Rate 250 g/ha, Preemergence): 5
Plant response rating, Morningglory [8, 21]: 1
Morningglory plant response rating ([8]; Rate 62 g/ha, Postemergence): 2
Morningglory plant response rating ([8]; Rate 125 g/ha, Postemergence): 4
Plant response rating, Morningglory ([8]; Rate 125 g/ha, Preemergence): 2
Plant response rating, Morningglory ([8]; Rate 250 g/ha, Postemergence): 9
Plant response rating, Morningglory ([8]; Rate 250 g/ha, Preemergence): 5
Plant response rating, Redroot pigweed [9, 21]: 6
Redroot pigweed plant response rating ([9]; Rate 62 g/ha, Postemergence): 5
Redroot pigweed plant response rating ([9]; Rate 125 g/ha, Postemergence): 7
Plant response rating, Redroot pigweed ([9]; Rate 125 g/ha, Preemergence): 9
Plant response rating, Redroot pigweed ([9]; Rate 250 g/ha, Postemergence): 7
Plant response rating, Redroot pigweed ([9]; Rate 250 g/ha, Preemergence): 10
Plant response rating, Nutsedge [10, 21]: 0
Nutsedge plant response rating ([10]; Rate 62 g/ha, Postemergence): 0
Nutsedge plant response rating ([10]; Rate 125 g/ha, Postemergence): 0
Plant response rating, Nutsedge ([10]; Rate 125 g/ha, Preemergence): 0
Plant response rating, Nutsedge ([10]; Rate 250 g/ha, Postemergence): 0
Plant response rating, Rape [11, 21]: 0
Rape plant response rating ([11]; Rate 62 g/ha, Postemergence): 3
Rape plant response rating ([11]; Rate 125 g/ha, Postemergence): 3
Plant response rating, Rape ([11]; Rate 125 g/ha, Preemergence): 0
Plant response rating, Rape ([11]; Rate 250 g/ha, Postemergence): 4
Plant response rating, Rape ([11]; Rate 250 g/ha, Preemergence): 1
Plant response rating, Soybean [12, 21]: 0
Soybean plant response rating ([12]; Rate 62 g/ha, Postemergence): 2
Soybean plant response rating ([12]; Rate 125 g/ha, Postemergence): 2
Plant response rating, Soybean ([12]; Rate 125 g/ha, Preemergence): 0
Plant response rating, Soybean ([12]; Rate 250 g/ha, Postemergence): 2
Plant response rating, Soybean ([12]; Rate 250 g/ha, Preemergence): 0
Plant response rating, Sugarbeets [13, 21]: 6
Sugarbeets plant response rating ([13]; Rate 62 g/ha, Postemergence): 8
Sugarbeets plant response rating ([13]; Rate 125 g/ha, Postemergence): 8
Plant response rating, Sugarbeets ([13]; Rate 125 g/ha, Preemergence): 8
Plant response rating, Sugarbeets ([13]; Rate 250 g/ha, Postemergence): 9
Plant response rating, Sugarbeets ([13]; Rate 250 g/ha, Preemergence): 9
Plant response rating, Velvetleaf [14, 21]: 1
Velvetleaf plant response rating ([14]; Rate 62 g/ha, Postemergence): 2
Velvetleaf plant response rating ([14]; Rate 125 g/ha, Postemergence): 2
Plant response rating, Velvetleaf ([14]; Rate 125 g/ha, Preemergence): 1
Plant response rating, Velvetleaf ([14]; Rate 250 g/ha, Postemergence): 2
Plant response rating, Velvetleaf ([14]; Rate 250 g/ha, Preemergence): 1
Plant response rating, Wheat [15, 21]: 0
Wheat plant response rating ([15]; Rate 62 g/ha, Postemergence): 2
Wheat plant response rating ([15]; Rate 125 g/ha, Postemergence): 3
Plant response rating, Wheat ([15]; Rate 125 g/ha, Preemergence): 0
Plant response rating, Wheat ([15]; Rate 250 g/ha, Postemergence): 3
Plant response rating, Wheat ([15]; Rate 250 g/ha, Preemergence): 0
Plant response rating, Wild oats [16, 21]: 0
Wild oats plant response rating ([16]; Rate 62 g/ha, Postemergence): 2
Wild oats plant response rating ([16]; Rate 125 g/ha, Postemergence): 2
Plant response rating, Wild oats ([16]; Rate 125 g/ha, Preemergence): 0
Plant response rating, Wild oats ([16]; Rate 250 g/ha, Postemergence): 2
Plant response rating, Wild oats ([16]; Rate 250 g/ha, Preemergence): 0
Barnyardgrass plant response rating [17, 22]: 1
Barnyardgrass plant response rating [17, 23]: 1
Plant response rating, Barnyardgrass [17, 24]: 2
Ducksalad plant response rating [18, 22]: 1
Ducksalad plant response rating [18, 23]: 2
Plant response rating, Ducksalad [18, 24]: 2
Rice plant response rating [19, 22]: 0
Rice plant response rating [19, 23]: 0
Plant response rating, Rice [19, 24]: 1
S. Flatsedge plant response rating [20, 22]: 4
S. Flatsedge plant response rating [20, 23]: 5
Plant response rating, S. Flatsedge [20, 24]: 6
